Experimental data: PubChem BioAssay AID2060358 (Molecular Pharmacology Branch, DTP, NCI, 2025)
“And” between values parts separate entries of the source, which are not always exact repeats. Equal values may be shown once.

Tested on: 254851-301-R-J1-PDC spheroids, viability % test/control
Assay: Anticancer human tumor 254851-301-R-J1-PDC patient-derived colon carcinoma cell line growth inhibition [TAK]
Conditions: spheroids with HUVEC and MSC; for viability, T/C: stronger effect = lower value
Source text: Combinatorial screen of targeted agents with TAK-243 and ipatasertib in multi-cell type tumor spheroids
A high-throughput screen of multi-cell type tumor spheroids was designed to identify active combinations of targeted small molecules and TAK-243 or ipatasertib. Complex spheroids include a stromal component modeled by human endothelial cells (HUVEC) and fibroblasts modeled by human mesenchymal stem cells (MSCs). The concentration ranges selected for each drug and investigational agent were based upon clinically achievable concentrations if the clinical Cmax of the agent was known.
Compounds. The drugs and investigational agents: TAK-243 (785004), ipatasertib (767898), everolimus (733504), selumetinib (741078), bortezomib (756655), trametinib (758246), ixazomib (758254), vemurafenib (761431), dabrafenib (764134), sapanisertib (764658), alpelisib (765974), and copanlisib (816437), were obtained from the National Cancer Institute (NCI) Developmental Therapeutics Program Chemical Repository. The FDA-approved anticancer drug set is available from the NCI Developmental Therapeutics Program. […] The stock solutions were prepared in dimethyl sulfoxide (DMSO, Sigma-Aldrich, St. Louis, MO, cat. D2650) at 800-fold the tested concentration and stored at -70 degrees C prior to their use. All drugs and investigational agents were tested over a range starting from a high concentration at or near the clinical Cmax and decreasing in half-log increments. If the clinical Cmax for an agent had not been determined, the highest concentration tested was 10 microM.
NCI60 Cell Culture. NCI60 cell lines were obtained from the NCI Developmental Therapeutics Program Tumor Repository. For each lot of cells, the Repository performed Applied Biosystems AmpFLSTR Identifiler testing with PCR amplification to confirm consistency with the published Identifier STR profile for each cell line. Cells were kept in continuous culture for no more than 20 passages. The optimal seeding densities for each of the cell lines at each time point assessed were determined prior to performing the concentration response studies. Briefly, the NCI60 human tumor lines were grown as monolayers in RPMI 1640 medium supplemented with 10% FBS and 2 mmol/L L-glutamine.
An additional 2 lines were from the NCI60 cell line panel including melanomas, MALME-3M and SK-MEL-2. Pooled donor human umbilical vein endothelial cells (HUVEC, Lonza, cat. CC-2519) and human mesenchymal stem cells (hMSC, Lonza, cat. PT-2501) were purchased from Lonza (Walkersville, MD).
PDMR cell lines were grown in complete medium (DC medium): Dulbecco's modified Eagle's medium (DMEM)/F12 supplemented with 5% fetal bovine serum (FBS), 2 mM L-glutamine, 100 U/mL penicillin and 100 µg/ml streptomycin, 0.4 µg/ml hydrocortisone, 10 ng/ml epidermal growth factor (EGF) recombinant human protein, 24 µg/mL adenine, and 0.1 mg/mL primocin. During culture from frozen stock vials, PDMR cells were cultured in the same medium containing 10 µM Y-27632 (see Table 3). The PDCs were cultured in complete DMEM/F12 media without 10 microM Y-27632 dihydrochloride for at least two passages prior to the screen. The pooled donor HUVEC and hMSC were cultured in endothelial cell growth medium 2 (PromoCell, Heidelberg, Germany, cat. C-22011) and mesenchymal stem cell growth medium 2 (PromoCell, cat. C-28009), respectively. For all experiments, HUVEC and hMSC were used at passages </=5.
For the pre-screen, cell seeding densities were determined from a titration spanning the range from 5,000 to 313 cells per well. The mct-spheroids including 60% malignant cells, 25% HUVEC and 15% MSC dispensed as a mixture into U-bottom Ultra-Low Attachment 384-well plates (Corning, NY)
High-throughput Drug Combination Screening.
Prior to their inoculation into 384-well plates, malignant cells, HUVEC, and hMSC were removed from T flasks using TrypLE express (Thermo Fisher Scientific, cat. 12605036) and harvested by centrifugation for 5 min at 233 x g. […]

[1] = curve of first compound, second compound 0.3 µM
[2] = curve of first compound, second compound 0.949 µM
[3] = curve of first compound, second compound 3 µM
[4] = curve of first compound, second compound 9.49 µM
[5] = curve of first compound, second compound 30 µM
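Note: spheroids exposed to drugs for seven days before viability readout.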

`CC(C)CC(NC(=O)CNC(=O)c1cc(Cl)ccc1Cl)B1OC(=O)CC(CC(=O)O)(C(=O)O)O1` (configuration not stated) + CC(C)NCC(C(=O)N1CCN(c2ncnc3c2C(C)CC3O)CC1)c1ccc(Cl)cc1 was tested, and the IC50 [1] was 53.7 nM, the IC50 [2] was 49.7 nM and the IC50 [3] was 49.2 nM. For the same molecule, the IC50 [4] was 56.9 nM, the IC50 [5] was 57.6 nM and the viability, T/C (second compound 0.3 µM, first compound 0.000316 µM) was 103%. For the same molecule, the viability, T/C (second compound 0.3 µM, first compound 0.001 µM) was 100%, the viability, T/C (second compound 0.3 µM, first compound 0.00316 µM) was 95.8% and the viability, T/C (second compound 0.3 µM, first compound 0.01 µM) was 101%. The viability, T/C (second compound 0.3 µM, first compound 0.0316 µM) was 73.7%, the viability, T/C (second compound 0.3 µM, first compound 0.1 µM) was 22.2% and the viability, T/C (second compound 0.949 µM, first compound 0.000316 µM) was 98.6%. For the same molecule, the viability, T/C (second compound 0.949 µM, first compound 0.001 µM) was 102%, the viability, T/C (second compound 0.949 µM, first compound 0.00316 µM) was 95.3% and the viability, T/C (second compound 0.949 µM, first compound 0.01 µM) was 95%. The viability, T/C (second compound 0.949 µM, first compound 0.0316 µM) was 67.3%, the viability, T/C (second compound 0.949 µM, first compound 0.1 µM) was 23.2% and the viability, T/C (second compound 3 µM, first compound 0.000316 µM) was 95.8%. For the same molecule, the viability, T/C (second compound 3 µM, first compound 0.001 µM) was 107%, the viability, T/C (second compound 3 µM, first compound 0.00316 µM) was 98.9% and the viability, T/C (second compound 3 µM, first compound 0.01 µM) was 102%. It also gave a viability, T/C (second compound 3 µM, first compound 0.0316 µM) of 70.2%, a viability, T/C (second compound 3 µM, first compound 0.1 µM) of 17.9% and a viability, T/C (second compound 9.49 µM, first compound 0.000316 µM) of 96.8%. The viability, T/C (second compound 9.49 µM, first compound 0.001 µM) was 101%, the viability, T/C (second compound 9.49 µM, first compound 0.00316 µM) was 97.7% and the viability, T/C (second compound 9.49 µM, first compound 0.01 µM) was 95.1%. The viability, T/C (second compound 9.49 µM, first compound 0.0316 µM) was 76.6%, the viability, T/C (second compound 9.49 µM, first compound 0.1 µM) was 24.5% and the viability, T/C (second compound 30 µM, first compound 0.000316 µM) was 78.2%. For the same molecule, the viability, T/C (second compound 30 µM, first compound 0.001 µM) was 63%, the viability, T/C (second compound 30 µM, first compound 0.00316 µM) was 81.4% and the viability, T/C (second compound 30 µM, first compound 0.01 µM) was 86%. For the same molecule, the viability, T/C (second compound 30 µM, first compound 0.0316 µM) was 80% and the viability, T/C (second compound 30 µM, first compound 0.1 µM) was 24.4%.

With `CC(=O)Nc1cccc(-n2c(=O)n(C3CC3)c(=O)c3c(Nc4ccc(I)cc4F)n(C)c(=O)c(C)c32)c1` the viability, T/C (compound 94.9 pM) was 117% and 114%, the viability, T/C (compound 0.0003 µM) was 114% and 116% and the viability, T/C (compound 0.000949 µM) was 105% and 107%. For the same molecule, the viability, T/C (compound 0.003 µM) was 117% and 99%, the viability, T/C (compound 0.00949 µM) was 97.5% and 83.9% and the viability, T/C (compound 0.03 µM) was 16.8% and 18.9%. For the same molecule, the IC50 (curve of compound) was 18.7 nM and 17 nM.

Molecule `Cn1cnc2c(F)c(Nc3ccc(Br)cc3Cl)c(C(=O)NOCCO)cc21` + CC(C)NCC(C(=O)N1CCN(c2ncnc3c2C(C)CC3O)CC1)c1ccc(Cl)cc1 has an IC50 [1] of 1600 nM, an IC50 [2] of 1610 nM and an IC50 [3] of 1630 nM. The IC50 [4] was 1540 nM, the IC50 [5] was 1410 nM and the viability, T/C (second compound 0.3 µM, first compound 0.00949 µM) was 110%. For the same molecule, the viability, T/C (second compound 0.3 µM, first compound 0.03 µM) was 120%, the viability, T/C (second compound 0.3 µM, first compound 0.0949 µM) was 110% and the viability, T/C (second compound 0.3 µM, first compound 0.3 µM) was 108%. It also gave a viability, T/C (second compound 0.3 µM, first compound 0.949 µM) of 77.5%, a viability, T/C (second compound 0.3 µM, first compound 3 µM) of 16.6% and a viability, T/C (second compound 0.949 µM, first compound 0.00949 µM) of 111%. For the same molecule, the viability, T/C (second compound 0.949 µM, first compound 0.03 µM) was 108%, the viability, T/C (second compound 0.949 µM, first compound 0.0949 µM) was 118% and the viability, T/C (second compound 0.949 µM, first compound 0.3 µM) was 88.7%. For the same molecule, the viability, T/C (second compound 0.949 µM, first compound 0.949 µM) was 78.9%, the viability, T/C (second compound 0.949 µM, first compound 3 µM) was 19.6% and the viability, T/C (second compound 3 µM, first compound 0.00949 µM) was 101%. For the same molecule, the viability, T/C (second compound 3 µM, first compound 0.03 µM) was 118%, the viability, T/C (second compound 3 µM, first compound 0.0949 µM) was 115% and the viability, T/C (second compound 3 µM, first compound 0.3 µM) was 105%. The viability, T/C (second compound 3 µM, first compound 0.949 µM) was 79.1%, the viability, T/C (second compound 3 µM, first compound 3 µM) was 17.6% and the viability, T/C (second compound 9.49 µM, first compound 0.00949 µM) was 103%. It also gave a viability, T/C (second compound 9.49 µM, first compound 0.03 µM) of 114%, a viability, T/C (second compound 9.49 µM, first compound 0.0949 µM) of 112% and a viability, T/C (second compound 9.49 µM, first compound 0.3 µM) of 102%. For the same molecule, the viability, T/C (second compound 9.49 µM, first compound 0.949 µM) was 75.2%, the viability, T/C (second compound 9.49 µM, first compound 3 µM) was 15.3% and the viability, T/C (second compound 30 µM, first compound 0.00949 µM) was 84.6%. The viability, T/C (second compound 30 µM, first compound 0.03 µM) was 92.4%, the viability, T/C (second compound 30 µM, first compound 0.0949 µM) was 105% and the viability, T/C (second compound 30 µM, first compound 0.3 µM) was 83.9%. It also gave a viability, T/C (second compound 30 µM, first compound 0.949 µM) of 72.4% and a viability, T/C (second compound 30 µM, first compound 3 µM) of 8.88%.
